Measured values as given in US9955691B2, “Macrocyclic picolinamides as fungicides” (DOW AGROSCIENCES LLC, priority 2014, dated 2018).
Like-named read-outs stand apart in the source and are kept apart here.

Experiments:
[1] = test system: Mycosphaerella graminicola; Anamorph: Septoria tritici; test: Fungicidal activity: Leaf Blotch of Wheat (SEPTTR); format: in vivo; conditions: Zymoseptoria tritici, Low Volume (121.5 g/H), wheat leaf blotch
Experimental: Evaluation of Fungicidal Activity: Leaf Blotch of Wheat (Mycosphaerella graminicola; Anamorph: Septoria tritici; Bayer Code […]) Technical grades of materials were dissolved in acetone, which were then mixed with nine volumes of water containing 110 ppm Triton X-100. The fungicide solutions were applied onto wheat seedlings using an automated booth sprayer to run-off. All sprayed plants were allowed to air dry prior to further handling. All fungicides were evaluated using the aforementioned method for their activity vs. all target diseases, unless stated otherwise. Wheat leaf blotch and brown rust activity were also evaluated using track spray applications, in which case the fungicides were formulated as EC formulations, containing 0.1% Trycol 5941 in the spray solutions. Wheat plants (variety Yuma) were grown from seed in a greenhouse in 50% mineral soil/50% soil-less Metro mix until the first leaf was fully emerged, with 7-10 seedlings per pot. These plants were inoculated with an aqueous spore suspension of Septoria tritici either prior to or after fungicide treatments. After inoculation the plants were kept in 100% relative humidity (one day in a dark dew chamber followed by two to three days in a lighted dew chamber at 20° C.) to permit spores to germinate and infect the leaf. The plants were then transferred to a greenhouse set at 20° C. for disease to develop. When disease symptoms were fully expressed on the 1st leaves of untreated plants, infection levels were assessed on a scale of 0 to 100 percent disease severity. Percent disease control was calculated using the ratio of disease severity on treated plants relative to untreated plants.

[2] = test system: Puccinia triticina; test: Fungicidal activity: Wheat Brown Rust (PUCCRT); format: in vivo; conditions: Low Volume (121.5 g/H)
Experimental: Technical grades of materials were dissolved in acetone, which were then mixed with nine volumes of water containing 110 ppm Triton X-100. The fungicide solutions were applied onto wheat seedlings using an automated booth sprayer to run-off. All sprayed plants were allowed to air dry prior to further handling. All fungicides were evaluated using the aforementioned method for their activity vs. all target diseases, unless stated otherwise. Wheat leaf blotch and brown rust activity were also evaluated using track spray applications, in which case the fungicides were formulated as EC formulations, containing 0.1% Trycol 5941 in the spray solutions. Wheat plants (variety Yuma) were grown from seed in a greenhouse in 50% mineral soil/50% soil-less Metro mix until the first leaf was fully emerged, with 7-10 seedlings per pot. These plants were inoculated with an aqueous spore suspension of Septoria tritici either prior to or after fungicide treatments. After inoculation the plants were kept in 100% relative humidity (one day in a dark dew chamber followed by two to three days in a lighted dew chamber at 20° C.) to permit spores to germinate and infect the leaf. The plants were then transferred to a greenhouse set at 20° C. for disease to develop. When disease symptoms were fully expressed on the 1st leaves of untreated plants, infection levels were assessed on a scale of 0 to 100 percent disease severity. Percent disease control was calculated using the ratio of disease severity on treated plants relative to untreated plants. Evaluation of Fungicidal Activity: Wheat Brown Rust (Puccinia triticina; Synonym: Puccinia recondite f. Sp. Tritici; Bayer Code PUCCRT) Wheat plants (variety Yuma) were grown from seed in a greenhouse in 50% mineral soil/50% soil-less Metro mix until the first leaf was fully emerged, with 7-10 seedlings per pot. These plants were inoculated with an aqueous spore suspension of Puccinia triticina either prior to or after fungicide treatments. After inoculation the plants were kept in a dark dew room at 22° C. with 100% relative humidity overnight to permit spores to germinate and infect the leaf. The plants were then transferred to a greenhouse set at 24° C. for disease to develop. Fungicide formulation, application and disease assessment followed the procedures as described in the Example A.

[3] = 24 h, 1 Day Protectant, read-out: SEPTTR 1 DP disease control
[4] = 72 h, 3 Day Curative, read-out: SEPTTR 3 DC disease control
[5] = 24 h, 1 Day Protectant, read-out: PUCCRT 1 DP disease control
[6] = 72 h, 3 Day Curative, read-out: PUCCRT 3 DC disease control

SMILES	pest or weed control at 121.5 g/ha [1, 3]	pest or weed control at 121.5 g/ha [1, 4]	pest or weed control at 121.5 g/ha [2, 5]	pest or weed control at 121.5 g/ha [2, 6]
CCOCC(=O)OCOc1c(OC)ccnc1C(=O)N[C@H]1COC[C@H](CCC(C)C)[C@@H](CCc2ccccc2)[C@H](C)OC1=O [compound 36]	> 70%	> 70%	> 70%	< 70%
COc1ccnc(C(=O)N[C@H]2COC[C@H](Cc3ccccc3)[C@@H](C3CCCC3)[C@H](C)OC2=O)c1OC(C)=O [compound 37]	> 70%	> 70%	> 70%	> 70%
COc1ccnc(C(=O)N[C@H]2COC[C@H](Cc3ccccc3)[C@@H](C3CCCC3)[C@H](C)OC2=O)c1OCOC(C)=O [compound 38]	> 70%	> 70%	> 70%	> 70%
COc1ccnc(C(=O)N[C@H]2COC[C@H](Cc3ccccc3)[C@@H](C3CCCC3)[C@H](C)OC2=O)c1OCOC(=O)C(C)C [compound 39]	> 70%	> 70%	> 70%	> 70%
CCOCC(=O)OCOc1c(OC)ccnc1C(=O)N[C@H]1COC[C@H](Cc2ccccc2)[C@@H](C2CCCC2)[C@H](C)OC1=O [compound 40]	> 70%	> 70%	> 70%	> 70%
COc1ccnc(C(=O)N[C@H]2COC[C@H](CCCc3ccccc3)[C@@H](Cc3ccccc3)[C@H](C)OC2=O)c1OC(C)=O [compound 41]	> 70%	> 70%	> 70%	> 70%
COc1ccnc(C(=O)N[C@H]2COC[C@H](CCCc3ccccc3)[C@@H](Cc3ccccc3)[C@H](C)OC2=O)c1OCOC(C)=O [compound 42]	> 70%	> 70%	> 70%	< 70%
COc1ccnc(C(=O)N[C@H]2COC[C@H](CCCc3ccccc3)[C@@H](Cc3ccccc3)[C@H](C)OC2=O)c1OCOC(=O)C(C)C [compound 43]	> 70%	> 70%	> 70%	< 70%
COc1ccnc(C(=O)N[C@H]2COC[C@H](CCC(C)C)[C@@H](Cc3ccccc3)[C@H](C)OC2=O)c1OCOC(C)=O [compound 44]	> 70%	> 70%	> 70%	< 70%
CCOCC(=O)OCOc1c(OC)ccnc1C(=O)N[C@H]1COC[C@H](CCC(C)C)[C@@H](Cc2ccccc2)[C@H](C)OC1=O [compound 45]	> 70%	> 70%	> 70%	> 70%
COc1ccnc(C(=O)N[C@H]2COC[C@H](CCC(C)C)[C@@H](Cc3ccccc3)[C@H](C)OC2=O)c1OC(C)=O [compound 46]	> 70%	> 70%	> 70%	> 70%
COc1ccnc(C(=O)N[C@H]2COC[C@H](Cc3ccc(Cl)cc3)[C@@H](Cc3ccccc3)[C@H](C)OC2=O)c1OCOC(C)=O [compound 47]	> 70%	> 70%	> 70%	> 70%
COc1ccnc(C(=O)N[C@H]2COC[C@H](Cc3ccccc3)[C@@H](Cc3ccc(OC(F)(F)F)cc3)[C@H](C)OC2=O)c1OCOC(=O)C(C)C [compound 48]	> 70%	> 70%	> 70%	< 70%
COc1ccnc(C(=O)N[C@H]2COC[C@H](Cc3ccccc3)[C@@H](Cc3ccc(OC(F)(F)F)cc3)[C@H](C)OC2=O)c1OCOC(C)=O [compound 49]	> 70%	< 70%	> 70%	< 70%
COc1ccnc(C(=O)N[C@H]2COC[C@H](Cc3ccccc3)[C@@H](Cc3ccc(OC(F)(F)F)cc3)[C@H](C)OC2=O)c1OC(C)=O [compound 50]	> 70%	< 70%	> 70%	< 70%
CCOCC(=O)OCOc1c(OC)ccnc1C(=O)N[C@H]1COC[C@H](Cc2ccccc2)[C@@H](c2ccccc2)[C@H](C)OC1=O [compound 51]	> 70%	< 70%	> 70%	< 70%
COc1ccnc(C(=O)N[C@H]2COC[C@H](Cc3ccccc3)[C@@H](c3ccccc3)[C@H](C)OC2=O)c1OCOC(C)=O [compound 53]	> 70%	> 70%	> 70%	> 70%
COc1ccnc(C(=O)N[C@H]2COC[C@H](Cc3ccc(C(F)(F)F)cc3)[C@@H](Cc3ccccc3)[C@H](C)OC2=O)c1OC(C)=O [compound 55]	> 70%	> 70%	> 70%	> 70%
COc1ccnc(C(=O)N[C@H]2COC[C@H](Cc3ccc(C(F)(F)F)cc3)[C@@H](Cc3ccccc3)[C@H](C)OC2=O)c1OCOC(C)=O [compound 56]	> 70%	< 70%	> 70%	< 70%
COc1ccnc(C(=O)N[C@H]2COC[C@H](Cc3ccc(C(F)(F)F)cc3)[C@@H](Cc3ccccc3)[C@H](C)OC2=O)c1OCOC(=O)C(C)C [compound 57]	> 70%	> 70%	> 70%	< 70%
COc1ccnc(C(=O)N[C@H]2COC[C@H](Cc3ccccc3)[C@@H](Cc3ccc(F)cc3)[C@H](C)OC2=O)c1OC(C)=O [compound 60]	> 70%	< 70%	< 70%	< 70%
COc1ccnc(C(=O)N[C@H]2COC[C@H](Cc3ccccc3)[C@@H](Cc3ccc(F)cc3)[C@H](C)OC2=O)c1OCOC(C)=O [compound 61]	> 70%	> 70%	> 70%	> 70%
COc1ccnc(C(=O)N[C@H]2COC[C@H](CCCc3ccccc3)[C@@H](CC(C)C)[C@H](C)OC2=O)c1OC(C)=O [compound 62]	> 70%	> 70%	> 70%	> 70%
CCC[C@H]1COC[C@H](NC(=O)c2nccc(OC)c2OCOC(C)=O)C(=O)O[C@@H](C)[C@@H]1CC(C)C [compound 63]	< 70%	< 70%	> 70%	< 70%
CCC[C@H]1COC[C@H](NC(=O)c2nccc(OC)c2OC(C)=O)C(=O)O[C@@H](C)[C@@H]1CC(C)C [compound 64]	> 70%	> 70%	> 70%	> 70%
